Source: US20210401931A1, “METHODS AND MATERIALS FOR TREATING CANCER” (Mayo Foundation for Medical Education and Research, priority 2018, published 2021)
“Also recorded” adds a separate entry of the source.

What was measured:
[1] = test system: MAP3K7- and CHD1-KD PC-3 cells; assay: MTS viability / IC50 analysis in MAP3K7- and CHD1-KD PC-3 cells; type: cell-based, human; conditions: MTS assay, log 2(IC50ratio)
Method: FIGS. 14A-G. RB functions as a negative regulator of NFκB signaling. (A) PC-3 infected with lentivirus for indicated shRNAs were treated with different chemicals and cells viability was measured by MTS assay. Heat map showing the normalized IC50 ratio (log 2(IC50ratio)). (B-D) PC-3 cells infected with lentivirus expressing indicated shRNAs were harvested for western blots (B), FACS (C), and RT-qPCR (D). All data were shown as mean values±SD (n=3). ns, not significant, * P<0.05, ** P<0.01, *** P<0.001. (E, F) PC-3 cells infected with indicated lentivirus were injected s.c. into NSG mice, and tumors were harvested and photographed at day 21 (E). Data in (F) were shown as means±SD (n=5). ns, not significant, * P<0.05. (G) A model depicting RB functions as a negative regulator of NFκB (p65/p50), providing an explanation of the finding that depletion of RB offsets the death of PTEN-null cells induced by either MAP3K7 or CHD1 deletion.
MAP3K7 or CHD1 was knocked down (KD) in PTEN-null PC-3 cells followed by treatment with an array of small molecule inhibitors for a number of cancer relevant pathways.

p65-IκBα interaction = assay: Co-immunoprecipitation of p65 and IκBα in PC-3 cells; type: cell-based, human; conditions: TNFα 20 ng/mL, 24 hours
RB-p65 interaction = assay: Co-immunoprecipitation of RB and p65 in PC-3 cells; type: cell-based, human; conditions: TNFα 20 ng/mL, 24 hours
From the text: FIGS. 2A-H. RB phosphorylation by CDK4 enhances RB interaction with NFκB protein p65. (A) Western blot analysis of reciprocal co-immunoprecipitation of endogenous RB1 and p65 proteins in PC-3 cells. (B) Schematic diagram depicting a set of p65 recombinant protein constructs. Western blot analysis of RB proteins in PC-3 cells whole cell lysate pulled down by GST or GST-p65 recombinant proteins. Stars indicated expected molecular weight. (C) Western blot analysis of RB proteins in PC-3 whole cell lysate pulled down by GST or GST-p65 recombinant proteins. Cell lysates were treated with or without λ, phosphatase before GST-pull down. (D) Western blot analysis of PC-3 whole cell lysates (WCL) and co-IP samples. Cell lysates were treated with or without λ, phosphatase before IP. (E) Western blot analysis of WCL and co-IP samples in DU145 cells 24 hours after transfected with indicated plasmids. (F) Western blot analysis of WCL and co-IP samples in PC-3 cells. Cells were treated with or without palbociclib (5 μM) for 24 hours before IP. […] Western blot bands of co-IPed RB protein were quantified by ImageJ software and normalized to the quantified value of IP-ed RB in cells without TNFα treatment. […] Western blot bands of p65 protein were quantified by ImageJ software and normalized to the quantified value of p65 protein in cell lysate without immuno-depletion (preimmune sample). […]

[2] = test system: NF-κB site of the PD-L1 promoter; assay: EMSA with biotin-labeled PD-L1-prom oligonucleotide and PC-3 nuclear extracts; type: cell-based, human; conditions: PC-3 nuclear extract
From the text: FIGS. 11A-H. (A) Heatmap showing differentially expressed genes (FDR<0.01) between palbociclib treatment versus DMSO and knockdown RB1 versus control. Gene expression values (FPKM) were Z-score normalized. FPKM, Fragments Per Kilobase of transcript per Million mapped reads. (B) UCSC Genome Browser screenshots of meta-analysis of published RB ChIP high throughput sequencing (ChIP-seq) data showing RB binding to CD274 (PD-L1) gene locus in K562 cells. PD-L1-prom oligonucleotide DNA containing NF-κB binding sequence was shown in the RB binding peak in the PD-L1 gene, the corresponding mutant PD-L1-prom oligonucleotide DNA was shown below. FIG. 11B discloses SEQ ID NOS 279-280, respectively, in order of appearance. (C) ChIP-qPCR analysis of RB binds at the PD-L1 promotor in PC-3 cells. All data were shown as mean values±SD (n=3). *** P<0.001. (D) ChIP-reChIP analysis examining the co-localization of p65 and RB in the PD-L1 promoters. All data were shown as mean values±SD (n=3). ** P<0.01. […]
FIGS. 21A-N. Effect of RB depletion, cell cycle, and RB-N S249/T252 phospho-mimicking peptide on PD-L1 expression in cell lines of various cancer types. […] 48 hours after infection, PD-L1 expression was determined by western blotting (A), RT-qPCR (B), and FACS (C). […] (D) Pd-l1 protein and mRNA levels were determined by western blotting in primary SKO and DKO mouse prostate tumor cell lines. […]

p65 NFκB protein = target: T1, p65 NFκB protein (human, UniProt Q04206 1-551); assay: GST pull down from PC-3 whole cell lysate, western blot (FIG. 2H)
T1 construct: which one stood in the assay is told under assay; also called endogenous p65; in vitro transcribed and translated p65 (pCMV4 p65)
T1 sequence (Q04206 whole entry): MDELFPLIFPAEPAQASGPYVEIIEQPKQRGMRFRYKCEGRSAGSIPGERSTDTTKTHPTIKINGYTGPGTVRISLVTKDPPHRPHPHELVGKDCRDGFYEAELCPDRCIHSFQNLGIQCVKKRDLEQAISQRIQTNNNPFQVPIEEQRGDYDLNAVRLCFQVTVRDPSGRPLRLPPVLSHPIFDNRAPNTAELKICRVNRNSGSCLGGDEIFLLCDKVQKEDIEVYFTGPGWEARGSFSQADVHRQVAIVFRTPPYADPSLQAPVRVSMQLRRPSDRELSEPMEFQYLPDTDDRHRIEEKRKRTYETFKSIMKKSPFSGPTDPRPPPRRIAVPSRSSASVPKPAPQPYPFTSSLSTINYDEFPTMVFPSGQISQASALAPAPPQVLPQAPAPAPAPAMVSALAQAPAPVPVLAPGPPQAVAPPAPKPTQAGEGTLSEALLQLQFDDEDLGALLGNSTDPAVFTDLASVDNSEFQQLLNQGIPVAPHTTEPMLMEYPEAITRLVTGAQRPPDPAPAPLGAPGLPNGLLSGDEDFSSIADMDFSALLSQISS
Method: Cells were lysed with IP buffer (50 mM Tris-HCl, pH 7.4, 150 mM NaCl, 1% Triton X-100, 1% sodium deoxycholate, and 1% protease inhibitor cocktails) on ice for more than 30 minutes. GST fusion proteins were immobilized on glutathione-Sepharose beads (GE Healthcare Lifesciences). After washing with lysis buffer, the beads were incubated with cell lysates overnight at 4° C. overnight. The beads were then washed six times with binding buffer and re-suspended in sample buffer. The bound proteins were subjected to western blotting analysis.

Cc1ccc(NCCCc2ccccc2)c(N)c1 [JSH-23]
viability of MAP3K7- and CHD1-KD PC-3 cells (normalized IC50 ratio) [1]: further increased viability loss

TNFα
p65-IκBα interaction (p65-IκBα interaction): decreased
p65-RB interaction in the nucleus (RB-p65 interaction): increased
DNA-protein complex (DPC) level at PD-L1-Prom probe [2]: largely enhanced; also recorded: further enhanced

B1: GST-RB-C (other, human, UniProt P06400 793-928, looked up)
chain: PSSPLRIPGGNIYISPLKSPYKISEGLPTPTKMTPRSRILVSIGESFGTSEKFQKINQMVCNSDRVLKRSAEGSNPPKPLKKLRFDIEGSDEADGSKHLPGESKFQQKLAEMTSTRTRMQKQKMNDSMDTSNKEEK
notes: domain: RB-C; not shown: glutathione S-transferase (GST) tag of the fusion
binding result (p65 NFκB protein): no binding
